Experimental data: patent publication US20230279061A1, “ISOLATED PEPTIDE FOR A PEPTIDE COACERVATE, AND METHODS OF USE THEREOF” (NANYANG TECHNOLOGICAL UNIVERSITY, priority 2020, published 2023)
Where a SMILES comes first, the peptide text is derived from it. Where no end group is shown, it is not given here. The star is where a group is joined. X1 = O=C(OCCSSCCOC(=O)*)c1ccccc1; X2 = CC(=O)OCCSSCCOC(=O)*

What was measured:
[1] = Turbidity measurement of phase separation (coacervation) at various pH; type: physicochemical
Text: The phase separation behavior of HBpep-K and HBpep-SR peptides at various pH was monitored turbidity measurements using a UV-Vis spectrometer (UV-2501PC, Shimadzu, Japan). The absorbance at 600 nm (A600) was used to calculate the relative turbidity (Lim, Z.W. et al., Bioconjugate Chem., 2018, 29, 2176) as: […]

HepG2 cells [2] = assay: MTT cytotoxicity assay; type: cell-based; conditions: for cytotoxicity of peptide alone: free peptide, HepG2; for cytotoxicity of coacervates with luciferase-encoding mRNA: optimal concentration, HepG2 (FIG. 10C)
Protocol: (§1) The cytotoxicity of the therapeutics-loaded or pristine peptide coacervates was evaluated by using the methylthiazolyldiphenyl-tetrazolium bromide (MTT) assay. Following literature protocols (Chang, H. et al., Nano Letters, 2017, 17, 1678; Sun, Y. et al. Biomat., 2017, 117, 77), 10^4 of HepG2 or HEK293 cells in 100 µL of media (DMEM, 10% FBS, antibiotics) were transferred into 96-wells plates and incubated for 24 hours. Then, the media were replaced with 100 µL of Opti-MEM containing therapeutics-loaded coacervates (various concentration of therapeutics, 1 mg/mL HBpep-SP) or various concentrations of pristine coacervate suspensions. After 4 hours of uptake, the media were removed and the cells were washed by PBS twice before adding 100 µL of media (DMEM, 10% FBS, antibiotics). The cells were incubated for another 20 hours before 10 µL of 5 mg/mL MTT dissolved in PBS was added. The media were removed after 4 hours of incubation with MTT, and the cells were washed by PBS twice. After that, 100 µL of DMSO per well was added for absorbance measurements at 570 nm using a microplate reader (Infinite M200 Pro, Tecan, Switzerland). The relative cell viability was calculated as: […]
(§2) where At, Ab, and Ac represent the absorbance of tested cells, control cells and no cell, respectively.

HepG2 cells [3] = assay: Delivery of proteins and peptides into cells (fluorescence microscopy); type: cell-based; conditions: free form, not recruited in coacervates
Protocol: (§3) For protein delivery into cells, 10^5 of cells were suspended in 1 mL of Dulbecco’s modified Eagle medium (DMEM) supplemented with 10% of fetal bovine serum, 100 units/mL of penicillin and 100 µg/mL of streptomycin, and then transferred into […] culture dishes. After 24 hours of incubation at 37° C. with 5% of CO2, the media was replaced with 900 µL of Opti-MEM. Then, 100 µL of freshly prepared protein-loaded HBpep-SA or HBpep-SP coacervate suspensions (0.1 mg/mL of cargos, 1 mg/mL of modified peptides) were added into the media. After 4 hours of incubation, the media was removed and the cells were washed with PBS twice before adding 1 mL of fresh media (DMEM, 10% FBS, antibiotics). The cells were incubated for another 20 hours and then washed twice at pH 5.0 in phosphate buffer to remove any coacervates that had not entered the cells, before being imaged under the fluorescence microscope (AxioObserver.Z1, Zeiss, Germany).

[4] = Optical/fluorescence microscopy of coacervates; type: physicochemical; conditions: near-physiological conditions
Protocol: Optical and fluorescence microcopy images of HBpep-SP coacervates and fluorescence image of macromolecules-loaded HBpep-SP coacervates were taken using an invert fluorescence microscope (AxioObserver.Z1, Zeiss, Germany). Dynamic light scattering (DLS, ZetaPALS, Brookhaven, USA) system was employed to measure the size of pristine HBpep-SR coacervates and macromolecules-loaded HBpep-SR coacervates. The fresh prepared pristine or macromolecules-loaded coacervates (with or without 0.1 mg/mL of macromolecules, 1 mg/mL of modified peptides) was diluted into PBS with a volume ratio of 1 : 9.0 before the DLS test.

HEK293 cells = assay: MTT cytotoxicity assay; type: cell-based; conditions: optimal concentration, HEK293 (FIG. 10D)
Protocol: as §1, §2

HepG2 cells [5] = assay: X-Gal staining of cells after β-Gal delivery; type: cell-based; conditions: 24 hours
Protocol: as §3
To further confirm the versatility of the HBpep-SR peptide coacervate delivery system, β-Gal, a very high MW enzyme (MW = 430 kDa) was selected to be recruited into the HBpep-SP peptide coacervate. Intracellular delivery of β-Gal is challenging because of the difficulty in forming complexes with common nanocarriers owing to its high MW (Mitragotri, S. et al., Nat. Reviews Drug Disc., 2014, 13, 655).

Compound: GHGVY GHGVY GHGPY K GHGPY GHGLY W (GHGVYGHGVYGHGPYKGHGPYGHGLYW; HBpep derivative) [HBpep-K, HBpep with a single lysine residue inserted at position 16]
- phase state at neutral pH ([1]; neutral pH): reverts to the single phase
- pH at which the peptide phase separates ([1]; turbidity at various pH): 9.0 pH

Compound: AVPIAQK [Smac, AVPIAQK, reference compound]
- cytotoxicity of peptide alone (HepG2 cells [2]): negligible cytotoxicity

Compound: lysozyme: Alexa Fluor 488-labeled lysozyme, cargo protein
- internalization / crossing of the cell membrane by free cargo (HepG2 cells [3]): neither lysozyme (FIGS. 8E, 8F) nor BSA (FIGS. 8G, 8H) were internalized by HepG2 cells

Compound: CC(C)C[C@H](NC(=O)CNC(=O)[C@H](Cc1c[nH]cn1)NC(=O)CNC(=O)[C@H](Cc1ccc(O)cc1)NC(=O)[C@@H]1CCCN1C(=O)CNC(=O)[C@H](Cc1c[nH]cn1)NC(=O)CNC(=O)[C@H](CCCCNC(=O)OCCSSCCOC(=O)c1ccccc1)NC(=O)[C@H](Cc1ccc(O)cc1)NC(=O)[C@@H]1CCCN1C(=O)CNC(=O)[C@H](Cc1c[nH]cn1)NC(=O)CNC(=O)[C@H](Cc1ccc(O)cc1)NC(=O)[C@@H](NC(=O)CNC(=O)[C@H](Cc1c[nH]cn1)NC(=O)CNC(=O)[C@H](Cc1ccc(O)cc1)NC(=O)[C@@H](NC(=O)CNC(=O)[C@H](Cc1c[nH]cn1)NC(=O)CN)C(C)C)C(C)C)C(=O)N[C@@H](Cc1ccc(O)cc1)C(=O)N[C@@H](Cc1c[nH]c2ccccc12)C(=O)O [HBpep-SP] (H-GHGVYGHGVYGHGPYK(X1)GHGPYGHGLYW-OH)
- stability of coacervate microdroplets [4]: formed stable microdroplets at near-physiological conditions
- cytotoxicity of coacervates with luciferase-encoding mRNA (HepG2 cells [2]): neither HBpep-SA nor HBpep-SP peptide coacervates with luciferase-encoding mRNA caused cytotoxicity
- cytotoxicity of coacervates with luciferase-encoding mRNA (HEK293 cells): neither HBpep-SA nor HBpep-SP peptide coacervates with luciferase-encoding mRNA caused cytotoxicity

Compound: β-Gal
- X-Gal staining (β-Gal activity in cells) (HepG2 cells [5]): no blue pigment formation

Compound: CC(=O)OCCSSCCOC(=O)NCCCC[C@H](NC(=O)[C@H](Cc1ccc(O)cc1)NC(=O)[C@@H]1CCCN1C(=O)CNC(=O)[C@H](Cc1c[nH]cn1)NC(=O)CNC(=O)[C@H](Cc1ccc(O)cc1)NC(=O)[C@@H](NC(=O)CNC(=O)[C@H](Cc1c[nH]cn1)NC(=O)CNC(=O)[C@H](Cc1ccc(O)cc1)NC(=O)[C@@H](NC(=O)CNC(=O)[C@H](Cc1c[nH]cn1)NC(=O)CN)C(C)C)C(C)C)C(=O)NCC(=O)N[C@@H](Cc1c[nH]cn1)C(=O)NCC(=O)N1CCC[C@H]1C(=O)N[C@@H](Cc1ccc(O)cc1)C(=O)NCC(=O)N[C@@H](Cc1c[nH]cn1)C(=O)NCC(=O)N[C@@H](CC(C)C)C(=O)N[C@@H](Cc1ccc(O)cc1)C(=O)N[C@@H](Cc1c[nH]c2ccccc12)C(=O)O [HBpep-SA] (H-GHGVYGHGVYGHGPYK(X2)GHGPYGHGLYW-OH)
- stability of coacervate microdroplets [4]: formed stable microdroplets at near-physiological conditions
- cytotoxicity of coacervates with luciferase-encoding mRNA (HepG2 cells [2]): neither HBpep-SA nor HBpep-SP peptide coacervates with luciferase-encoding mRNA caused cytotoxicity
- cytotoxicity of coacervates with luciferase-encoding mRNA (HEK293 cells): neither HBpep-SA nor HBpep-SP peptide coacervates with luciferase-encoding mRNA caused cytotoxicity

Compound: KLAKLAK KLAKLAK (KLAKLAKKLAKLAK) [PAD, proapoptotic domain peptide, reference compound]
- cytotoxicity of peptide alone (HepG2 cells [2]): negligible cytotoxicity
